Assay results reported in patent US20220054465A1, “(PYRIDIN-2-YL)AMINE DERIVATIVES AS TGF-BETA R1 (ALK5) INHIBITORS FOR THE TREATMENT OF CANCER” (Nexys Therapeutics, Inc., priority 2018, published 2022).

System: HEK-Blue TGFβ cell
Test: HEK-Blue TGFβ cellular reporter gene assay (SEAP readout)
Type: cell-based
Conditions: HEK-Blue TGFβ cells stimulated with TGF-β, 22-23 h incubation, SEAP read at 630 nm
Description: HEK-Blue TGFβ Cellular Reporter Gene Assay:
HEK-Blue TGFβ cell was purchased from Invivogen. Cell suspension of 2.5×10^5 cells/ml was prepared using Test Medium (DMEM containing 0.5% v/v heat-inactivated FBS). TGF-β working solution (6 ng/ml) was obtained through diluting TGF-β stock solution (10 μg/ml) by Test Medium before use. Eight different concentrations of all compounds were obtained by 3× gradient dilution method using TGF-β working solution. Add 100 μl of Test Medium (Vehicle) or test article or TGF-β working solution per well of a flat-bottom 96-well plate. Add 100 μl of HEK-Blue TGF-β cell suspension per well. Incubate the plate at 37° C. in a CO2 incubator for 22-23 h. Add 150 μl of resuspended QUANTI-Blue per well of a new flat-bottom 96-well plate. Add 30 μl of induced HEK-Blue TGF-β cells supernatant. Avoid pipetting at the bottom of wells. Incubate the plate at 37° C. incubator for 30-40 min. Determine secreted embryonic alkaline phosphatase (SEAP) levels using a spectrophotometer at 630 nm.
The inhibition was calculated using the equation: […]

SMILES | IC50 [nM]
Cc1cc(Oc2ccnc(Nc3ccc(CCC(=O)O)cc3)c2)c(-c2ccccn2)nc1C [Example 2] | 230
Cc1cc(Oc2ccnc(Nc3cncc(CCC(=O)O)c3)c2)c(-c2ccccn2)nc1C [Example 3] | > 10000
Cc1cc(Oc2ccnc(Nc3ccc(F)c(CCC(=O)O)c3)c2)c(-c2ccccn2)nc1C [Example 4] | 200
Cc1cc(Oc2ccnc(Nc3ccc(Cl)c(CCC(=O)O)c3)c2)c(-c2ccccn2)nc1C [Example 5] | 150
Cc1cc(Oc2ccnc(Nc3cc(CCC(=O)O)ccc3F)c2)c(-c2ccccn2)nc1C [Example 6] | 160
Cc1cc(Oc2ccnc(Nc3cccc(CCC(=O)O)n3)c2)c(-c2ccccn2)nc1C [Example 7] | 170
Cc1cc(Oc2ccnc(Nc3cc(CCC(=O)O)ccn3)c2)c(-c2ccccn2)nc1C [Example 8] | 590
Cc1cc(Oc2ccnc(Nc3ccnc(CCC(=O)O)c3)c2)c(-c2ccccn2)nc1C [Example 9] | > 10000
Cc1cc(Oc2ccnc(Nc3cccc(CCC(=O)O)c3F)c2)c(-c2ccccn2)nc1C [Example 10] | 220
Cc1cc(Oc2ccnc(Nc3cccc(-c4nnn[nH]4)c3)c2)c(-c2ccccn2)nc1C [Example 13] | 1080
Cc1cc(Oc2ccnc(Nc3ccc(-c4nnn[nH]4)cc3)c2)c(-c2ccccn2)nc1C [Example 14] | > 10000
Cc1cc(Oc2ccnc(Nc3ccc(Cc4nnn[nH]4)cc3)c2)c(-c2ccccn2)nc1C [Example 15] | 1840
Cc1cc(Oc2ccnc(Nc3cccc(C(C)(C)c4nnn[nH]4)c3)c2)c(-c2ccccn2)nc1C [Example 18] | 180
Cc1cc(Oc2ccnc(Nc3cc(CCc4nnn[nH]4)ccc3F)c2)c(-c2ccccn2)nc1C [Example 19] | 160
Cc1cc(Oc2ccnc(Nc3ccc(Cl)c(CCc4nnn[nH]4)c3)c2)c(-c2ccccn2)nc1C [Example 20] | 120
Cc1cc(Oc2ccnc(Nc3ccc(F)c(CCc4nnn[nH]4)c3)c2)c(-c2ccccn2)nc1C [Example 21] | 160
Cc1cc(Oc2ccnc(Nc3ccc(C(F)(F)F)c(CCc4nn[nH]n4)c3)c2)c(-c2ccccn2)nc1C [Example 22] | 230
Cc1cc(Oc2ccnc(Nc3cncc(CCc4nnn[nH]4)c3)c2)c(-c2ccccn2)nc1C [Example 23] | > 10000
Cc1cc(Oc2ccnc(Nc3cc(CCc4nnn[nH]4)ccn3)c2)c(-c2ccccn2)nc1C [Example 24] | 4530
Cc1cc(Oc2ccnc(Nc3cccc(CCc4nnn[nH]4)c3F)c2)c(-c2ccccn2)nc1C [Example 25] | 640
Cc1cc(Oc2ccnc(Nc3cccc(CCc4nnn[nH]4)n3)c2)c(-c2ccccn2)nc1C [Example 26] | 350
Cc1cc(Oc2ccnc(Nc3cccc(CCc4nnn[nH]4)c3C)c2)c(-c2ccccn2)nc1C [Example 27] | 250

SMILES | IC50 [nM]
Cc1ccc(Nc2cc(Oc3cc(C)c(C)nc3-c3ccccn3)ccn2)cc1CCc1nnn[nH]1 [Example 28] | 50
Cc1cc(CCc2nnn[nH]2)cc(Nc2cc(Oc3cc(C)c(C)nc3-c3ccccn3)ccn2)c1 [Example 29] | 38
Cc1ccc(CCc2nnn[nH]2)cc1Nc1cc(Oc2cc(C)c(C)nc2-c2ccccn2)ccn1 [Example 30] | 110
Cc1cc(Oc2ccnc(Nc3cnn(CCc4nn[nH]n4)c3)c2)c(-c2ccccn2)nc1C [Example 31] | > 10000
Cc1cc(Oc2ccnc(Nc3ccn(CCc4nn[nH]n4)n3)c2)c(-c2ccccn2)nc1C [Example 32] | 3710
Cc1cc(Oc2ccnc(Nc3cccc(OCc4nnn[nH]4)c3)c2)c(-c2ccccn2)nc1C [Example 33] | 7310
Cc1cc(Oc2ccnc(Nc3cccc(Cc4nnn(CC(=O)O)n4)c3)c2)c(-c2ccccn2)nc1C [Example 34A, 2-(5-(3-((4-((5,6-dimethyl-[2,2′-bipyridin]-3-yl)oxy)pyridin-2-yl)amino)benzyl)-2H-tetrazol-2-yl)acetic acid] | 12700
Cc1cc(Oc2ccnc(Nc3cccc(Cc4nnnn4CC(=O)O)c3)c2)c(-c2ccccn2)nc1C [Example 34B, 2-(5-(3-((4-((5,6-dimethyl-[2,2′-bipyridin]-3-yl)oxy)pyridin-2-yl)amino)benzyl)-1H-tetrazol-1-yl)acetic acid] | > 10000
Cc1cc(Oc2ccnc(Nc3ccc(Cc4nnn(CC(=O)O)n4)cc3)c2)c(-c2ccccn2)nc1C [Example 35A] | > 10000
Cc1cc(Oc2ccnc(Nc3ccc(Cc4nnnn4CC(=O)O)cc3)c2)c(-c2ccccn2)nc1C [Example 35B] | > 10000
Cc1ccc(Oc2ccnc(Nc3ccc(F)c(CCC(=O)O)c3)c2)c(C)n1 [Example 36, 3-(5-((4-((2,6-dimethylpyridin-3-yl)oxy)pyridin-2-yl)amino)-2-fluorophenyl)propanoic acid] | 180
Cc1ccc(Oc2ccnc(Nc3cccc(CCC(=O)O)n3)c2)c(C)n1 [Example 37] | 200
Cc1ccc(Oc2ccnc(Nc3cncc(CCC(=O)O)c3)c2)c(C)n1 [Example 38] | > 10000
Cc1ccc(Oc2ccnc(Nc3cc(CCC(=O)O)ccc3F)c2)c(C)n1 [Example 39] | 260
Cc1ccc(Oc2ccnc(Nc3cccc(CCC(=O)O)c3F)c2)c(C)n1 [Example 40] | 220
Cc1ccc(Oc2ccnc(Nc3ccc(Cl)c(CCC(=O)O)c3)c2)c(C)n1 [Example 41] | 100
Cc1ccc(Oc2ccnc(Nc3cc(CCC(=O)O)ccn3)c2)c(C)n1 [Example 42] | 140
Cc1ccc(Oc2ccnc(Nc3cccc(CCC(=O)O)c3)c2)c(C#N)n1 [Example 43] | 3810
Cc1ccc(Oc2ccnc(Nc3cc(CCc4nn[nH]n4)ccc3F)c2)c(C)n1 [Example 45] | 420
Cc1ccc(Oc2ccnc(Nc3cccc(CCc4nn[nH]n4)c3F)c2)c(C)n1 [Example 46] | 520
Cc1ccc(Oc2ccnc(Nc3cccc(CCc4nn[nH]n4)n3)c2)c(C)n1 [Example 47] | 310
Cc1ccc(Oc2ccnc(Nc3cc(CCc4nn[nH]n4)ccn3)c2)c(C)n1 [Example 48] | 3030

SMILES | IC50 [nM]
Cc1ccc(Oc2ccnc(Nc3cncc(CCc4nn[nH]n4)c3)c2)c(C)n1 [Example 49] | > 10000
Cc1ccc(Oc2ccnc(Nc3ccc(Cl)c(CCc4nn[nH]n4)c3)c2)c(C)n1 [Example 50] | 630
Cc1ccc(Oc2ccnc(Nc3ccc(F)c(CCc4nn[nH]n4)c3)c2)c(C)n1 [Example 51] | 270
Cc1ccc(Oc2ccnc(Nc3cccc(CCc4nn[nH]n4)c3)c2)c(-c2cccnc2)n1 [Example 53] | 2950
Cc1ccc(Oc2ccnc(Nc3cccc(CCc4nn[nH]n4)c3)c2)c(-c2ccncc2)n1 [Example 54] | 6390
Cc1ccc(Oc2ccnc(Nc3cccc(CCc4nn[nH]n4)c3)c2)c(-c2ccccn2)n1 [Example 55] | 200
CCc1nc(C)ccc1Oc1ccnc(Nc2cccc(CCc3nn[nH]n3)c2)c1 [Example 56] | 160
CCc1ccc(Oc2ccnc(Nc3cccc(CCc4nn[nH]n4)c3)c2)c(C)n1 [Example 57] | 130
Cc1ccc(Oc2ccnc(Nc3cccc(CCc4nn[nH]n4)c3)c2)c(C(F)(F)F)n1 [Example 58] | 150
Cc1nc2ccccc2cc1Oc1ccnc(Nc2cccc(CCc3nn[nH]n3)c2)c1 [Example 59] | 450
Cc1ccc(Oc2ccnc(Nc3cccc(C(C)(C)c4nnn[nH]4)c3)c2)c(-c2ccccc2)n1 [Example 60] | 79
Cc1nc(-c2ccccc2)ccc1Oc1ccnc(Nc2cccc(C(C)(C)c3nn[nH]n3)c2)c1 [Example 61] | 190
Cc1ccc(Oc2ccnc(Nc3cccc(CCc4nn[nH]n4)c3)c2)c(-c2cnn(C)c2)n1 [Example 62] | 2110
Cc1cccc(-c2nc(C)ccc2Oc2ccnc(Nc3cccc(CCc4nn[nH]n4)c3)c2)n1 [Example 63] | 720
Cc1ccc(Oc2ccnc(Nc3cccc(CCc4nn[nH]n4)c3)c2)c(-c2ncccc2C)n1 [Example 64] | 2600
Cc1ccc(Oc2ccnc(Nc3ccc(C(F)(F)F)c(CCc4nn[nH]n4)c3)c2)c(-c2ccccn2)n1 [Example 65] | 520
Cc1ccc(Oc2ccnc(Nc3cccc(CCC(=O)O)c3)c2)c(-c2ccccc2)n1 [Example 66, 3-(3-((4-((6-methyl-2-phenylpyridin-3-yl)oxy)pyridin-2-yl)amino)phenyl)propanoic acid] | 24
c1cc(CCc2nn[nH]n2)cc(Nc2cc(Oc3cn(C4CC4)nc3C3CCOCC3)ccn2)c1 [Example 67, N-(3-(2-(2H-tetrazol-5-yl)ethyl)phenyl)-4-((1-cyclopropyl-3-(tetrahydro-2H-pyran-4-yl)-1H-pyrazol-4-yl)oxy)pyridin-2-amine] | 2650
O=C(O)CCc1cccc(Nc2cc(Oc3cn(C4CC4)nc3C3CCOCC3)ccn2)c1 [Example 68, 3-(3-((4-((1-cyclopropyl-3-(tetrahydro-2H-pyran-4-yl)-1H-pyrazol-4-yl)oxy)pyridin-2-yl)amino)phenyl)propanoic acid] | 740
O=C(O)CCc1cc(Nc2cc(Oc3cn(C4CC4)nc3C3CCOCC3)ccn2)ccn1 [Example 69] | > 10000
Cc1cc(Oc2ccnc(Nc3cccc(C(C)(C)C(=O)O)c3)c2)c(-c2ccccn2)nc1C [Example 71, 2-(3-((4-((5,6-dimethyl-[2,2′-bipyridin]-3-yl)oxy)pyridin-2-yl)amino)phenyl)-2-methylpropanoic acid] | 140
